In patent US10653648B2, “Histone acetyltransferase activators and compositions and uses thereof” (THE TRUSTEES OF COLUMBIA UNIVERSITY IN THE CITY OF NEW YORK, priority 2016, dated 2020):

Key:
[1] = cited from earlier work
[2] = system: SUDHL-6 (EP300 mut/CREBBP mut); experiment: Histone acetylation quantified by mass spectrometry; assay type: cell-based; conditions: combination with romidepsin (1.5 nM); YF2 6 uM, JF1 3 uM; 48 hours
Experimental: (§1) FIGS. 25A-B compare the synergy effects that HAT-activators JF1 and YF2 in combination with romidepsin have on histone acetylation in B-cell lymphoma cell lines, as quantified by mass spectrometry. In these experiments cells were seeded at 5,000 cells/mL and exposed to YF2 (6 uM), JF1 (3 uM) and romidepsin (1.5 nM) alone and in combinations for 48 hours. Following treatment, SUDHL-6 (EP300 mut/CREBBP mut, FIG. 25A) and SUDHL-10 cells (EP300 mut/CREBBP mut, FIG. 25B) were harvested for histone extraction.
For each, a synergy effect, calculated as a fold change of treatment vs. control, was observed showing an increase in histone acetylation for JF1/romidepsin and YF2/romidepsin compared to individual treatment of the cells with either JF1, YF2, or romidepsin alone (FIG. 25A).

[3] = system: Pfeiffer (EP300 wt/CREBBP mut); experiment: Synergy with romidepsin, Excess Over Bliss; assay type: cell-based; conditions: in combination with romidepsin, 72 hrs
Experimental: (§2) FIGS. 22A-E show the synergy effect of JF1, a HAT activator compound, with romidepsin (a pan-class HDAC inhibitor) in B-cell lymphoma cell lines. Synergy between JF1 and romidepsin was evaluated in Pfeiffer (EP300 wt/CREBBP mut) and SUDHL-10 cells (EP300 mut/CREBBP Δ). Excess Over Bliss was calculated. Drug synergy will be confirmed by Excess over bliss (EOB). Bliss is calculated by the following formula: X=(A+B)−(A*B); where X designates the combined response for the two single compounds with effects (inhibition) A and B. The difference between Bliss and observed growth inhibition (Y) induced by combinations of drugs A and B at the same dose is the termed EOB (EOB=Y−X) 18,19. An EOB>10 connotes synergy. […] Synergy effect of JF1 and romidepsin was also assessed in a panel of B-cell lymphoma cell lines (N=5) (FIGS. 22C-22E). Cells were treated by different concentrations of JF1 and romidepsin for 48 hrs (FIG. 22C) and 72 hrs (FIG. 22D) and an Excess Over Bliss was calculated for both time points for all five cell lines. SUDHL-6 and Pfeiffer (Bold) were treated 2, 2.5, […] JF1, whereas the rest of cell lines were treated with 2, 3, 4 μM JF1. Synergy is defined by an Excess Over Bliss of 10. […]
(§3) Cells were exposed to increasing concentrations of YF2 and romidepsin in various combinations for 72 hrs and Excess Over Bliss (EOB) was calculated.

[4] = system: seven B-cell lymphoma cell lines; experiment: Synergy with romidepsin, Excess Over Bliss, cell line panel; assay type: cell-based; conditions: in combination with romidepsin, 72 hrs
Experimental: as §2, §3

[5] = system: SUDHL-10 cells (EP300 mut/CREBBP mut); experiment: Histone acetylation quantified by mass spectrometry; assay type: cell-based; conditions: combination with romidepsin (1.5 nM), YF2 6 uM, 48 hours
Experimental: as §1
The synergy trend for the SUDCL-6 cell line is evident for SUDCL-10 as well (FIG. 25B). In the same manner as described above, SUDHL-10 cells were treated separately with romidepsin, JF1, YF2, JF1/romidepsin, and YF2/romidepsin and the fold change in histone acetylation was measured.

SUDHL-10 = experiment: Histone H3 acetylation by Western Blot; assay type: cell-based; conditions: in combination with romidepsin, 48 hours
Experimental: (§4) FIG. 26 provides a Western Blot showing the effect of JF1 and YF2 alone and in combination with romidepsin on histone acetylation in HAT-mutated cells lines. Cells were exposed to YF2 and romidepsin alone and in combinations for 48 hours in SUDHL-6 and SUDHL-10 (EP300 mut/CREBBP mut). The synergistic effect of YF2 on histone acetylation was evaluated by Western Blot with histone H3 serving as loading control.

SUDHL-6 = experiment: Histone H3 acetylation by Western Blot; assay type: cell-based; conditions: in combination with romidepsin, 48 hours
Experimental: as §4

| Structure (SMILES) | solubility [1] | H3:K9AC increase in acetylation vs. YF2 or JF1 alone [2] [fold] | H3:K9AC increase in acetylation vs. control [2] [fold] | H3:K9AC increase in acetylation vs. romidepsin [2] [fold] | global acetylation of histones compared with single agent effects [2] | strong synergy response (EOB of at least 20) [3] | cell lines with strong synergy (EOB of at least 20) [4] | cell lines with strong synergy (EOB of at least 20), percentage [4] [%] | global acetylation of histones compared with single agent effects ([5]; JF1 3 uM) | H3:K9AC maximum synergy effect on acetylation [5] | global acetylation of Histone H3 compared with single agent effects (SUDHL-10) | global acetylation of Histone H3 compared with single agent effects (SUDHL-6) |
| --- | --- | --- | --- | --- | --- | --- | --- | --- | --- | --- | --- | --- |
| CCOc1ccccc1C(=O)Nc1ccc(Cl)c(C(F)(F)F)c1 [CTB] | insoluble | – | – | – | – | – | – | – | – | – | – | – |
| CCCCCCCCCCCCCCCc1cccc(OCC)c1C(=O)Nc1ccc(Cl)c(C(F)(F)F)c1 [CTPB] | insoluble | – | – | – | – | – | – | – | – | – | – | – |
| CCOc1cccc(OCCN(C)C)c1C(=O)Nc1ccc(Cl)c(C(F)(F)F)c1 [YF2] | – | 8 | 10 | ~2 | induced the global acetylation of histones | fail to show a strong response | 6 out of 7 | 86 | induced the global acetylation of histones | about 1.6 fold | induced the global acetylation of Histone H3 | induced the global acetylation of Histone H3 |
